Measurements taken from publication PMC4116523, “Novel peptides suppress VEGFR-3 activity and antagonize VEGFR-3-mediated oncogenic effects” (Oncotarget, 2014).
Bridges are numbered along the chain shown (N, C = ends). Where no end group is shown, it is not given here.

Columns and labels:
[1] = test system: human soluble protein kinase VEGFR-3 (sVEGFR-3); assay: VEGFR-3 kinase assay ([32P]ATP, poly(Glu:Tyr); Eurofins Panlabs); type: biochemical; conditions: peptides screened at 10 μM, 0.1 μg/ml enzyme, HEPES pH 7.4, 15 min preincubation 37°C, 10 μM ATP, [γ32P]ATP, 30 min, Figure 1B
Description: Kinase assays were performed as previously described. Briefly, human soluble protein kinase VEGFR-3 (sVEGFR-3) that was expressed in insect cells was used for the kinase assays. The candidate peptides were preincubated with 0.1 μg/ml of enzyme in modified HEPES buffer pH 7.4 for 15 minutes at 37°C. The reaction was initiated by addition of 0.2 mg/ml poly(Glu:Tyr), 10 μM ATP and 0.25 μCi [γ^32P]ATP for another 30 minute incubation period and terminated by further addition of 3% H3PO4. Aliquots were removed and counted to determine the amount of [^32P] Poly(Glu:Tyr) that formed. Compounds were screened at 10 μM. All peptides were analyzed by Eurofins Panlabs Taiwan Ltd.

sVEGFR-3 = assay: Competition assay of synthesized peptides with rhVEGF-C for binding to plate-bound sVEGFR-3 (ELISA); parameters: species or system human; conditions: sVEGFR-3 250 ng/mL coated; peptide 6 h RT, then rhVEGF-C 300 ng/mL 6 h; ELISA A450/650; mean of three independent experiments; Figure 1A
Description: Soluble VEGFR-3 (sVEGFR-3) (250 ng/mL) (Angio-Proteomie, Boston, MA) was immobilized on 96-well plates and blocked with phosphate buffer containing 1% BSA for 1 hour at room temperature. In competition experiments, peptides were incubated with the VEGFR-3-coated plates for 6 hours at room temperature. After incubation, human recombinant VEGF-C protein (rhVEGF-C, 300 ng/mL, 100 μL) was added directly to the wells without removal of the peptides and then incubated at room temperature for 6 hours. The plates were thoroughly washed with 0.1% BSA/PBS buffer (pH 8.5), and anti–VEGF-C Ab was added at 4°C for 24 hours. Biotin-conjugated goat anti-rabbit IgG antibody was added for 1 hour. HRP-conjugated streptavidin was then added for 30 minutes. The free streptavidin conjugate was washed away and freshly prepared substrate solution (TMB) was then added to each well. The reaction was allowed to stand for 15 minutes, and the color development was stopped by the addition of H3PO4 (1.0 mol/L). The absorbance at 450 nm was read with a reference wavelength of 650 nm (A450/650).

[2] = test system: MDA-MB-231/VEGF-C lung metastasis; assay: Experimental metastasis assay, MDA-MB-231/VEGF-C cells by tail vein, bioluminescent imaging of lung; type: in vivo; conditions: SCID mice, n=8, peptide 8 μg/g body weight i.v., one day before cells then twice weekly for 8 weeks; bioluminescence; control peptide P4; Figure 5
Description: All animal work was performed in accordance with protocols that were approved by the Institutional Animal Care and Use Committee of the National Health Research Institutes. All of the animal experiments were performed on 6- to 8-week-old CB-17 severe combined immunodeficient (SCID) female mice (supplied by LASCO, Taiwan) with eight animals per group. The control (P4), P5 and P6 peptides were pretreated with 8 μg/g body weight dissolved in 50 μl PBS and i.v. injected into mice one day before cancer cell injection. For experimental metastasis assays, 2.5 × 10^5 viable cells were resuspended in 0.1 mL of PBS and introduced into the circulation via tail vein injection. For the treatment, peptides were administered (8 μg/g body weight) twice weekly for 8 weeks. The luciferase-based, non-invasive bioluminescent imaging and analysis were performed with the Xenogen IVIS-200 system (Xenogen, Alameda, CA, USA).

A549 cells [3] = assay: VEGF-C-induced drug resistance (Taxol, cisplatin), DNA flow cytometric and trypan blue exclusion assays; type: cell-based, human; conditions: A549, rhVEGF-C, 20 nM Taxol or 10μM cisplatin 48 hours; flow cytometry (PI) and trypan blue exclusion; Figure 3E-3H
Description: Briefly, cells were treated with 20 nM Taxol or 10μM cisplatin and incubated for 48 hours. Samples were prepared and analyzed as previously described.
Briefly, cells were harvested using trypsin and stained with 0.4% trypan blue dye (Sigma-Aldrich). Trypan blue-positive and -negative cells were counted using a hemacytometer (Hausser Scientific, Horsham, PA) under a phase-contrast microscope (Fisher Scientific, Pittsburgh, PA). The results of each assay were expressed in terms of the percentage of dead cells relative to the total number of cells. Individual experiments were performed in triplicate.

A549 cells [4] = assay: VEGF-C-induced drug resistance (Taxol, cisplatin), MTT assay; type: cell-based, human; conditions: A549, peptides 200 μM, rhVEGF-C 100 ng/mL, Taxol or cisplatin; Figure S3
Description: A549 lung cancer cells (3×10^3) were cultured in 96-well plates and serum-starved for 24 hours. Cells were treated with the candidate peptides (200 μM) for 4 hours and were treated with rhVEGF-C (100 ng/mL) for 6 hours in serum-free medium. After 48 hours, MTT (5 mg/ml) was added for 3 hours and the precipitates were dissolved in DMSO. The absorbance at 570 nm was read with a reference wavelength of 630 nm (A570/630).

A549 cells [5] = assay: Sphere-forming assay (tumor initiating cells), A549; type: cell-based, human; conditions: peptide 200 μM, rhVEGF-C 200 ng/mL, 10 days non-adherent, Figure S5A
Description: (§1) A549 and MCF-7 cells were serum-starved for 24 hours. The cells were pretreated with candidate peptides (200 μM) in the presence or absence of rhVEGF-C for 24 hours. The cells were trypsinized and mechanically dissociated to generate single cells that were then seeded at a density of 1×10^3 cells/ml in serum-free DMEM/F12 medium (Invitrogen, Carlsbad, CA) that was freshly supplemented with epidermal growth factor (20 ng/ml), basic fibroblast growth factor (20 ng/ml) (R&D Systems, Minneapolis, MN), 1X B27 supplement, 1X N2 supplement (Invitrogen, Carlsbad, CA) in the presence or absence of rhVEGF-C (200 ng/mL) and candidate peptides (200 μM) in non-adherent plates for 10 days. Quantification of sphere formation was determined by measuring the percentage of 5000 spheres.

[6] = test system: MDA-MB-231 breast cancer cells; assay: Boyden chamber migration/invasion assay, MDA-MB-231; type: cell-based, human; conditions: peptide 100 μM, 24 hours, uncoated / matrigel-coated transwells, Figure 3
Description: (§2) Boyden chamber cell migration assays were performed using uncoated transwells and matrigel-coated transwells with membranes (8 μm pore-size) (Becton Dickinson, Mountain View, CA). The chambers were inserted into 24-well culture plates that contained DMEM/F12 with 10% fetal bovine serum. The cells were pretreated with peptide (100 μM) in serum-free DMEM/F12 medium and were loaded into the transwells. After 24 hours, non-migrated cells were removed with a cotton swab and the cells were fixed with methanol for 15 min and stained with crystal violet. The migrated cells were quantified by blind counting of the migrated cells on the lower surface of the membrane from at least 10 fields per chamber using a 20X objective. All migration and invasion assays were normalized to the proliferation rate.

[7] = test system: various cancer cell lines (MDA-MB-231, BT474, HS578T, HBL100, MDA-MB-361, MCF-7, CL1-5, H460, H322); assay: VEGF-C-induced VEGFR-3 phosphorylation, migration and invasion in various cancer cell lines; type: cell-based, human; conditions: various breast and lung cancer cell lines; Figure 4B-4E, Figure S4
Description: (§3) Cells were incubated in serum-free DMEM/F12 for 24 hours before treatment with or without rhVEGF-C (100 ng/mL). Cells were lysed in RIPA buffer [Tris-HCl (50 mM; pH 7.5), NaCl (120 mM), NP-40 (0.5%), Na3VO4 (200 mM), EDTA (100 mM), sodium deoxycholate (0.5%), SDS (1%)] for 10 minutes on ice. An equal quantity of protein from the cell lysates was resuspended in gel sample buffer, resolved by 10% SDS-PAGE, and transferred to polyvinylidene difluoride membrane membranes (Millipore Corp., Milford, MA). After blocking, membranes were incubated with specific primary antibodies and corresponding secondary antibodies. Immunoreaction signals were visualized by an enhanced chemiluminescence detection system (PerkinElmer Health Sciences, Waltham MA).
Boyden chamber cell migration assays were performed using uncoated transwells and matrigel-coated transwells with membranes (8 μm pore-size) (Becton Dickinson, Mountain View, CA). The chambers were inserted into 24-well culture plates that contained DMEM/F12 with 10% fetal bovine serum. The cells were pretreated with peptide (100 μM) in serum-free DMEM/F12 medium and were loaded into the transwells. […] The migrated cells were quantified by blind counting of the migrated cells on the lower surface of the membrane from at least 10 fields per chamber using a 20X objective. […]

Src = assay: Western blot of Src phosphorylation (VEGFR-3-mediated signaling pathway); type: cell-based, human; conditions: A549 and 293T/VEGFR-3 cells, rhVEGF-C, Figure 2A, 2B
Description: as §3

A549 lung cancer cells = assay: Boyden chamber migration/invasion assay, A549; type: cell-based, human; conditions: peptide 100 μM, 24 hours, uncoated / matrigel-coated transwells, Figure 3
Description: as §2

SOX2 = SOX2 expression by reverse transcription PCR in A549 spheres; type: cell-based, human; conditions: A549 spheres grown 10 days; Figure S6
Description: Total RNA was isolated after A549 spheres had grown for 10 days by using Trizol (Invitrogen, Carlsbad, CA), and cDNA were synthesized with Oligo dT (Thermo Scientific, Brookfield, WI). The specific primers for SOX2 were 5'-TACAACATGATGGAGACG-3' and 5'-[…]-3'. The reaction was cycled at 95°C for 40 seconds, then 56°C for 40 seconds, and then 72°C for 30 seconds for 30 cycles followed by a final extension of 72°C for 5 minutes.

[8] = test system: lymphatic endothelia cells (LECs); assay: VEGF-C-induced VEGFR-3 phosphorylation, migration and proliferation in LECs (western blot, Boyden chamber, MTT); type: cell-based, human; conditions: MTT (96 hrs), Figure 4A
VEGFR-3 [9] = assay: Western blot of VEGF-C-induced VEGFR-3 Tyr1063/1068 phosphorylation; type: cell-based, human; conditions: A549 and 293T/VEGFR-3 cells, peptides 24 hours, rhVEGF-C, Figure 2A, 2B
Description: as §3

MCF-7 cells = assay: Sphere-forming assay (tumor initiating cells), MCF-7; type: cell-based, human; conditions: peptide 200 μM, rhVEGF-C 200 ng/mL, 10 days non-adherent, Figure S5B
Description: as §1

VEGFR-3 [10] = assay: KIRA-ELISA of tyr-phosphorylated VEGFR-3 in VEGF-C-treated H928 lung cancer cells; type: cell-based, human; conditions: serum-starved, peptide 30 min then rhVEGF-C 15 min, Figure 1C
Description: H928 lung cancer cells (2×10^5) were cultured in 24-well plates and serum-starved for 24 hours. Cells were pretreated with candidate peptide for 30 minutes and then treated with rhVEGF-C for 15 minutes. Cells were solubilized in RIPA lysis buffer for 60 minutes. Another 85 μl of cell lysate was transferred to an ELISA well that was coated with VEGFR-3 and incubated for 2 hours. After the plates were washed, biotinylated-4G10 antibody (500 ng/ml, 100 μl) was added and incubated for 2 hours. After the plates were washed, HRP-conjugated streptavidin was then added for 30 minutes. The free avidin conjugate was washed away and freshly prepared substrate solution (TMB) was then added to each well. The reactions were allowed to proceed for 10 minutes, and the color development was stopped by the addition of H3PO4 (1.0 mol/L). The absorbance at 450 nm was read with a reference wavelength of 650 nm (A450/650).

Row | Sequence | inhibitory effects on VEGFR-3 kinase activity [1] [%] | levels of sVEGFR-3-bound VEGF-C (competition with VEGF-C binding) (sVEGFR-3) | VEGF-C-induced lung metastasis [2] | VEGF-C-induced drug resistance (A549 cells [3]) | VEGF-C-induced drug resistance by MTT assay (A549 cells [4]) | sphere formation enhanced by VEGF-C (number and size of spheres) (A549 cells [5]) | migration and invasion [6] | VEGF-C-induced VEGFR-3 phosphorylation, cell migration and invasion [7] | phospho-Src levels (Src) | migration and invasion (A549 lung cancer cells) | expression of SOX2 (SOX2) | VEGF-C-induced VEGFR-3 phosphorylation, cell migration and proliferation of LECs [8] | VEGF-C-induced VEGFR-3 Tyr1063/1068 phosphorylation (VEGFR-3 [9]) | sphere formation enhanced by VEGF-C (number and size of spheres) (MCF-7 cells) | inhibitory effects on the phosphorylation of VEGFR-3 (KIRA-ELISA) (VEGFR-3 [10])
1 | CLTSSLRSC (disulfide 1-9 (inferred)) [P8] | 49 |  |  |  |  |  |  |  |  |  |  |  |  |  | 
2 | CNDSHMKLC (disulfide 1-9 (inferred)) [P4, used as control peptide in later assays] |  | reduced the levels of bound VEGF-C in a significant and dose-dependent manner |  |  |  |  |  |  |  |  |  |  |  |  | 
3 | CNYSHLFYC (disulfide 1-9 (inferred)) [P5] | 82 | reduced the levels of bound VEGF-C in a significant and dose-dependent manner | significantly inhibited | inhibit | inhibit | decreased the number and size of the spheres | Obvious decreases | significantly inhibited | decreased phospho-Src levels | Obvious decreases | decreased the expression of SOX2 | abolished | dramatic suppressive effects | decreased the number and size of the spheres | highest inhibitory effects
4 | CYYGQSKYC (disulfide 1-9 (inferred)) [P6] | 72 | reduced the levels of bound VEGF-C in a significant and dose-dependent manner | significantly inhibited | inhibit | inhibit |  | Obvious decreases | significantly inhibited | decreased phospho-Src levels | Obvious decreases | decreased the expression of SOX2 | abolished | dramatic suppressive effects |  | highest inhibitory effects
5 | CYYWQSKYC (disulfide 1-9 (inferred)) [P7] | 69 |  |  |  |  |  |  |  |  |  |  |  |  |  | 
